{
  "source": "paper doi:10.1101/2023.12.19.571805v1",
  "about": "(biorxiv, 2023)",
  "biological_target": "T1, PhoR (PhoR-GFP) (Mycobacterium tuberculosis, UniProt P71815)",
  "T1 sequence (P71815 181-485 limits assumed)": "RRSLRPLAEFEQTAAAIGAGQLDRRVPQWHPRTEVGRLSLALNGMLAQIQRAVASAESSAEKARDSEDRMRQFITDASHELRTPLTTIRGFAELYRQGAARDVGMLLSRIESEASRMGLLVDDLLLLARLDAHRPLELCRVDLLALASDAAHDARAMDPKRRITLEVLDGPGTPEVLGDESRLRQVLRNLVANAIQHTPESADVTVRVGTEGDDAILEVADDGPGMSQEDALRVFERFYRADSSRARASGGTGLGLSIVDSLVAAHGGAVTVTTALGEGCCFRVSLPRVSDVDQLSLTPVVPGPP",
  "experiment": "radioactive dot-blot autophosphorylation assay",
  "format": "biochemical",
  "conditions": "read-out: % inhibition at 10 μM",
  "note": "*1 amine or outer side, *2 acyl side, *3 side chain or, on linkers, in order; H or OH if unused. Where a SMILES comes first, the peptide text is derived from it. Bridges are numbered along the chain shown (N, C = ends). Roman numbers before positions name the chains, in order. [ ]: non-standard residue; d: D form. Actinocin(9to1) = Cc1c2oc3c(C)ccc(C(=O)[*:1])c3nc-2c(C(=O)[*:2])c(N)c1=O; NMeV = CN[C@H](C(=O)O)C(C)C; Sar = CNCC(=O)O",
  "data": [
    {"compound": "Cc1c2oc3c(C)ccc(C(=O)N[C@@H]4C(=O)N[C@H](C(C)C)C(=O)N5CCC[C@H]5C(=O)N(C)CC(=O)N(C)[C@@H](C(C)C)C(=O)O[C@@H]4C)c3nc-2c(C(=O)N[C@@H]2C(=O)N[C@H](C(C)C)C(=O)N3CCC[C@H]3C(=O)N(C)CC(=O)N(C)[C@@H](C(C)C)C(=O)O[C@@H]2C)c(N)c1=O", "note": "[Actinomycin D] (I: T[dV]P[Sar][NMeV] / II: T[dV]P[Sar][NMeV]; ester I:1-I:C, II:1-II:C; linker I:N-II:N via Actinocin(9to1))", "values": [
      {"measurement": "inhibition at 10 µM", "value": "> 50", "unit": "%"}
    ]}
  ]
}
